These are literature values, as cited in patent US9321030B2, “Clay-containing thin films as carriers of absorbed molecules” (priority 2012, dated 2016).

One data set concerns S. aureus ATCC 12600. Particulars: known value.
Data set [1] deals with Mycobacterium tuberculosis.
The subject of data set [2] is Pseudomonas aeruginosa biofilms.
The subject of data set [3] is multi-drug resistant strains of gram-positive and gram-negative bacteria. As to conditions: clinically relevant multi-drug resistant strains.

In the case of gentamicin, the minimum inhibitory concentration in the data set on S. aureus ATCC 12600 is 1 µg/mL.
Turning to H—(NLys-Nspe-Nspe)4-NH2 [Peptoid 1], in data set [1], the result was active. Further, the activity against biofilms entry in data set [2] is recorded as “active”. Further, the “efficacy against planktonic cells” value in data set [3] was “demonstrated efficacy”.
